Assay results reported in ChEMBL document CHEMBL1157452, “First synthesis of alpha-aminoalkyl-(N-substituted)thiocarbamoyl-phosphinates: inhibitors of aminopeptidase N (APN/CD13) with the new zinc-binding group” (Bioorg Med Chem Lett, 2008).

Biological target: T1, Aminopeptidase N (Sus scrofa, UniProt P15145)
T1 sequence (P15145 whole entry): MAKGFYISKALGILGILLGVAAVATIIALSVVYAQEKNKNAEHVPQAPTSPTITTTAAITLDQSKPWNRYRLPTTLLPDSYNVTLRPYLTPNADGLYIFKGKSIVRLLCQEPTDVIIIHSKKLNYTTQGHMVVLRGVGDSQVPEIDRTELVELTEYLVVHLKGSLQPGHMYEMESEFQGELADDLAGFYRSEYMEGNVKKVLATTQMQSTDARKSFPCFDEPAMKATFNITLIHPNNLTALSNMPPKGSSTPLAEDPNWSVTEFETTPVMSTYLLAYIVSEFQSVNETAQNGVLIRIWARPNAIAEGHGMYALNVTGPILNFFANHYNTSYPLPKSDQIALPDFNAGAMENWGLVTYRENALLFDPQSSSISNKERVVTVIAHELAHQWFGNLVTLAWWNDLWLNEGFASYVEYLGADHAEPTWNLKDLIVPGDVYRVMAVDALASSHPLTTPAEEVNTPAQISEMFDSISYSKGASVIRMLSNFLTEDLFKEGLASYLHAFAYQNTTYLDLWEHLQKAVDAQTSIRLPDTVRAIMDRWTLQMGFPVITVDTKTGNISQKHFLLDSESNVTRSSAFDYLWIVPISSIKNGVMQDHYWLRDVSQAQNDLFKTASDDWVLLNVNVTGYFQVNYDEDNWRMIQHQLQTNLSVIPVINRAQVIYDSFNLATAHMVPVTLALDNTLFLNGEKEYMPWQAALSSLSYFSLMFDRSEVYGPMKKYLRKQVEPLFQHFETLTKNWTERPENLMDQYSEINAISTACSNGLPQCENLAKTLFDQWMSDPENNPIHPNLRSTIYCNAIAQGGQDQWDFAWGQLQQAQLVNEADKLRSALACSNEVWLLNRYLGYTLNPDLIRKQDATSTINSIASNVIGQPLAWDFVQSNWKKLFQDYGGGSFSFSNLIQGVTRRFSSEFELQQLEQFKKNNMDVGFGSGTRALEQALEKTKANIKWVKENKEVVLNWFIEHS
Test: Inhibition of pig kidney aminopeptidase N

| Compound | IC50 [nM] | Ki [nM] |
| --- | --- | --- |
| CCCC(N)P(=O)(O)C(=S)NCCc1ccccc1 (configuration not stated) | 2280 |  |
| CC(C)CNC(=S)P(=O)(O)C(N)C(C)C (configuration not stated) | 1900 |  |
| CCCCC(N)P(=O)(O)C(=S)NCc1ccc(OC)cc1 (configuration not stated) | 250 | 143 |
| CCCCC(N)P(=O)(O)C(=S)NCCc1ccccc1 (configuration not stated) | 730 |  |
| CNC(=S)P(=O)(O)C(N)CC(C)C (configuration not stated) | 10600 |  |

More lines, in order of falling IC50, values ahead:

| IC50 [nM] | Ki [nM] | Compound |
| --- | --- | --- |
| 4200 |  | CC(N)P(=O)(O)C(=S)NCCc1ccccc1 (configuration not stated) |
| 1180 |  | CCCCCCNC(=S)P(=O)(O)C(N)C(C)C (configuration not stated) |
| 1120 |  | COc1ccc(CNC(=S)P(=O)(O)C(C)N)cc1 (configuration not stated) |
| 680 |  | CCCC(N)P(=O)(O)C(=S)NCc1ccc(OC)cc1 (configuration not stated) |
| 500 |  | CCCCCCNC(=S)P(=O)(O)C(N)CC(C)C (configuration not stated) |
| 380 |  | COc1ccc(CNC(=S)P(=O)(O)C(N)CCc2ccccc2)cc1 (configuration not stated) |
